The record followed here is ChEMBL document CHEMBL5055626 (J Med Chem, 2021).

Experiment [1] addresses T1, Neuronal acetylcholine receptor subunit alpha-7 (Rattus norvegicus, UniProt Q05941). Description: Antagonist activity at rat alpha7 nAChR expressed in xenopus oocytes assessed as inhibition of Ach- induced response at -70 mV holding potential preincubated for 5 mins followed by Ach stimulation by voltage-clamp based electrophysiological method. It counts as cell-based, Oocyte.

The target of experiment [2] is T2, Neuronal acetylcholine receptor; alpha3/beta4 (Rattus norvegicus, UniProt P04757+P12392). Description: Antagonist activity at rat alpha3beta4 nAChR. It counts as protein-complex assay.
T2 sequence (P04757 whole entry): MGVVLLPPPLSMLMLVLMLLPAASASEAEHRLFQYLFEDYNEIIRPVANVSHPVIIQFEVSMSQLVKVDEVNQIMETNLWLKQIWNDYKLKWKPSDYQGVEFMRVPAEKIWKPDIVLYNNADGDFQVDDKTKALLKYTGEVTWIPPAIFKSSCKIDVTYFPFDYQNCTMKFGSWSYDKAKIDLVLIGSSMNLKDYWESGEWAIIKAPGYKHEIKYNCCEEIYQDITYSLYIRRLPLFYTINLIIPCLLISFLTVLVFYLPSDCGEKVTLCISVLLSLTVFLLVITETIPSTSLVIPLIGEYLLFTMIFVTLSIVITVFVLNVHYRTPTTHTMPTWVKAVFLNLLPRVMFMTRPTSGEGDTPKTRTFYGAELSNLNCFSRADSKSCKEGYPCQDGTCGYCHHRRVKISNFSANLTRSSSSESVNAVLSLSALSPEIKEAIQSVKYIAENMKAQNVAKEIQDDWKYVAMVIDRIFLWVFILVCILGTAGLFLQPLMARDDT
T2 sequence (P12392 whole entry): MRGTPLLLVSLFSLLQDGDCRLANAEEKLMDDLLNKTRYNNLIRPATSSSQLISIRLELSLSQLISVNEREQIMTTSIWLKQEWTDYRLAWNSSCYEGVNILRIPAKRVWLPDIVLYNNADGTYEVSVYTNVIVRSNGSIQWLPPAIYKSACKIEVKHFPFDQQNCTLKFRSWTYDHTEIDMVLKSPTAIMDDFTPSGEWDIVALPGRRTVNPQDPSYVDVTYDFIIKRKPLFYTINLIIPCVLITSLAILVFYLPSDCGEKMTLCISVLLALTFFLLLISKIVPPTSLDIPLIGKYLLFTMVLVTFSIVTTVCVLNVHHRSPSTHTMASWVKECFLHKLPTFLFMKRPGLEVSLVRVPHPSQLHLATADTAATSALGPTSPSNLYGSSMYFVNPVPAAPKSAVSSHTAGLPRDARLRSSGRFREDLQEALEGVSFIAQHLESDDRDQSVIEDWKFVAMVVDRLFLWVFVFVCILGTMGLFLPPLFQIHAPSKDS
Experiment [3] in a line: Antagonist activity at rat alpha6/ alpha3beta2beta3 nAChR expressed in xenopus oocytes assessed as inhibition of Ach- induced response at -70 mV holding potential preincubated for 5 mins followed by Ach stimulation by voltage-clamp based electrophysiological method. The class given is cell-based. The conditions noted are these: Oocyte.
The target in experiment [4] is Neuronal acetylcholine receptor; alpha3/beta2 (Rattus norvegicus, UniProt P04757+P12390). Description: Antagonist activity at rat alpha3beta2 nAChR expressed in xenopus oocytes assessed as inhibition of Ach- induced response at -70 mV holding potential preincubated for 5 mins followed by Ach stimulation by voltage-clamp based electrophysiological method. It counts as cell-based, Oocyte.
Sequence of Neuronal acetylcholine receptor; alpha3/beta2 (P04757 whole entry): as the sequence (P04757 whole entry) above
Sequence of Neuronal acetylcholine receptor; alpha3/beta2 (P12390 whole entry): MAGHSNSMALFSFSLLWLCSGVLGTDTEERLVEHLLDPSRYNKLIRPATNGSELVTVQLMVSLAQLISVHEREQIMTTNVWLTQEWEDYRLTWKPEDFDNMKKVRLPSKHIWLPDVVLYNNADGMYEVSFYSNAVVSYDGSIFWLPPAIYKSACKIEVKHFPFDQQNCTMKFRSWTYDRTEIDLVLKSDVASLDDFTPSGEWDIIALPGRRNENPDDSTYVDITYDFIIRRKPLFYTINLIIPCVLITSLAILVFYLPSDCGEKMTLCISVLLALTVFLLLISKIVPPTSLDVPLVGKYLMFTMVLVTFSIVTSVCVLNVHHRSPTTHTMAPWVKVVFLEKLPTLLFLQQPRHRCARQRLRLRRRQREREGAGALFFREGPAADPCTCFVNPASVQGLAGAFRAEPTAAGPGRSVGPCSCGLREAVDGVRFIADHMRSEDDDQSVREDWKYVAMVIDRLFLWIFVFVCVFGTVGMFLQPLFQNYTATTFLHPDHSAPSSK

Experiment [5] addresses T3, Nicotinic acetylcholine receptor alpha6/alpha3/beta4 (Homo sapiens, UniProt P30926+P32297+Q15825). Description: Antagonist activity at rat alpha6/alpha3beta4 nAChR expressed in xenopus oocytes assessed as inhibition of Ach- induced response at -70 mV holding potential preincubated for 5 mins followed by Ach stimulation by voltage-clamp based electrophysiological method. It counts as cell-based, Oocyte.

The target in experiment [6] is T3, Nicotinic acetylcholine receptor alpha6/alpha3/beta4. Description: Antagonist activity at rat alpha6/alpha3beta4 nAChR. The class given is protein-complex assay. The conditions noted are these: target entry is the homologue from another species.
The nature of experiment [7]: Antagonist activity at rat alpha6/ alpha3beta2beta3 nAChR.
For experiment [8], the target named is T1, Neuronal acetylcholine receptor subunit alpha-7. Description: Antagonist activity at rat alpha7 nAChR expressed in xenopus oocytes assessed as inhibition of Ach- induced response at -100 mV holding potential incubated for 200 secs followed by acetyl choline stimulation by two- electrode voltage-clamp based electrophysiological method. It counts as cell-based, Oocyte.

Experiment [9] shares this target. Description: Antagonist activity at rat alpha7 nAChR expressed in xenopus oocytes assessed as inhibition of Ach- induced response at -80 mV holding potential incubated for 200 secs followed by Ach stimulation by voltage-clamp based electrophysiological method. It counts as cell-based, Oocyte.
The target of experiment [10] is T2, Neuronal acetylcholine receptor; alpha3/beta4. Description: Antagonist activity at rat alpha3beta4 nAChR expressed in xenopus oocytes assessed as inhibition of Ach- induced response at -80 mV holding potential incubated for 200 secs followed by Ach stimulation by voltage-clamp based electrophysiological method. It counts as cell-based, Oocyte.
For experiment [11] the target is unchanged. Description: Antagonist activity at rat alpha3beta4 nAChR expressed in xenopus oocytes assessed as inhibition of Ach- induced response at -70 mV holding potential preincubated for 5 mins followed by Ach stimulation by voltage-clamp based electrophysiological method. It counts as cell-based, Oocyte.

Structures are written as SMILES. Where a SMILES comes first, the peptide text is derived from it. Bridges are numbered along the chain shown (N, C = ends).

T3 sequence (P30926 whole entry): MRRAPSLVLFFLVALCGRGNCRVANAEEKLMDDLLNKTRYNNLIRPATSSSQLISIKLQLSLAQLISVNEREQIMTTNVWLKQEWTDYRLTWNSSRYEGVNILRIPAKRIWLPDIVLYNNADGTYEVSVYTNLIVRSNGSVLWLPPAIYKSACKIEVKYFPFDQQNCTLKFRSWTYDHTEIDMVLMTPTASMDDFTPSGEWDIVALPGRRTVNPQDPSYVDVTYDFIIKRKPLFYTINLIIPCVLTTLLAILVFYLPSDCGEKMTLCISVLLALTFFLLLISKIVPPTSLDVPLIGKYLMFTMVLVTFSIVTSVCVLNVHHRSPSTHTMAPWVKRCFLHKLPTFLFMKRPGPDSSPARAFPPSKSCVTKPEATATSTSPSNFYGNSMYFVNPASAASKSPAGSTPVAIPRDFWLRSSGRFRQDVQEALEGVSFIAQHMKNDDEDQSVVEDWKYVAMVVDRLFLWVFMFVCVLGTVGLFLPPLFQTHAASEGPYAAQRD
T3 sequence (P32297 whole entry): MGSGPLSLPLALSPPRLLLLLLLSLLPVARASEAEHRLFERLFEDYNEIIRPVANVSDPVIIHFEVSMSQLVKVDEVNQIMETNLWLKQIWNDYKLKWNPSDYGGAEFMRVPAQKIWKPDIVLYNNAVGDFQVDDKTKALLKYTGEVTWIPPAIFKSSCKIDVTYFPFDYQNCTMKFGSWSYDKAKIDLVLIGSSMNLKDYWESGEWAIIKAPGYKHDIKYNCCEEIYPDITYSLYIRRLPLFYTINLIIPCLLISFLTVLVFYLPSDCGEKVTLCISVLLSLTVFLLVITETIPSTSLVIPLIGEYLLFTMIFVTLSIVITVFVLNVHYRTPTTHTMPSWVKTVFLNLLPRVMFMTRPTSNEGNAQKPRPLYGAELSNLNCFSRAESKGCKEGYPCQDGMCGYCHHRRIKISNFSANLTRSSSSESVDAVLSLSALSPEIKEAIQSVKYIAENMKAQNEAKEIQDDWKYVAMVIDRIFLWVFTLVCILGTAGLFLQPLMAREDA
T3 sequence (Q15825 whole entry): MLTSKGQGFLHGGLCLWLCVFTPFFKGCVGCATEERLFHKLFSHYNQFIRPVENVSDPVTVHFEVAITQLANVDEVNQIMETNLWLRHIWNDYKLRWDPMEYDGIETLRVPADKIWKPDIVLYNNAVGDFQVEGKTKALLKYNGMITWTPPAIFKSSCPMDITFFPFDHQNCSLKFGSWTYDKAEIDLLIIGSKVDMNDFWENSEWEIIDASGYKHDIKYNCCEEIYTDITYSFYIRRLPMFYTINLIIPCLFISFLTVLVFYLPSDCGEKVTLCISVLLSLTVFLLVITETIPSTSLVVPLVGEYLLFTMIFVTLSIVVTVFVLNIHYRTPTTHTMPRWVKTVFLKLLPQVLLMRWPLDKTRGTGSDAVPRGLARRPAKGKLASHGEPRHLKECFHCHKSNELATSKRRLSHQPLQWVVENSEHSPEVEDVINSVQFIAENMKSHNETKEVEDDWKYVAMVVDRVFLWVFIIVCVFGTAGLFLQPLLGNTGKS
T1 sequence (Q05941 whole entry): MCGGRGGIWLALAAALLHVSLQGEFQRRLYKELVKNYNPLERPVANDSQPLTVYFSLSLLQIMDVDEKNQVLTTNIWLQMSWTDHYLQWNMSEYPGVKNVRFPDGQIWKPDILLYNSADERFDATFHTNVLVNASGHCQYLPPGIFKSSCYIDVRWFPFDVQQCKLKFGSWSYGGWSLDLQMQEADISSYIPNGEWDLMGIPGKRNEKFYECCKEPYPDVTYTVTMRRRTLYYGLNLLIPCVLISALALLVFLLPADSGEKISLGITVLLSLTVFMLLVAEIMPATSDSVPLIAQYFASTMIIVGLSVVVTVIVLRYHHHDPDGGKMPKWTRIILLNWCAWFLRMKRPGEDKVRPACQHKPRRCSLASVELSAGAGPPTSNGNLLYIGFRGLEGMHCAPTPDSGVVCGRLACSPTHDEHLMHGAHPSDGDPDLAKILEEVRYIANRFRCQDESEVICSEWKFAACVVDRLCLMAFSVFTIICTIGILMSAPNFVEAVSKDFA

For `C[C@H](N)C(=O)N[C@H]1CSSC[C@@H]2NC(=O)[C@H](CCCNC(=N)N)NC(=O)[C@H](CCCNC(=N)N)NC(=O)[C@H](CC(=O)O)NC(=O)[C@H](CO)NC(=O)[C@H](CSSC[C@H](C(N)=O)NC(=O)[C@H](CCCNC(=N)N)NC(=O)[C@H](Cc3c[nH]c4ccccc34)NC(=O)[C@H](CCCNC(=N)N)NC2=O)NC1=O`, the IC50 in experiment [1] was determined as 440 nM.
Consider `CC(C)C[C@@H]1NC(=O)[C@H](C(C)C)NC(=O)[C@H](C)NC(=O)[C@@H]2CSSC[C@H](NC(=O)CN)C(=O)N[C@@H](CSSC[C@H](C(=O)NCC(=O)O)NC(=O)[C@H](Cc3ccc(O)cc3)NC1=O)C(=O)N[C@@H](CO)C(=O)N[C@@H]([C@@H](C)O)C(=O)N1CCC[C@H]1C(=O)N1CCC[C@H]1C(=O)N2`, for which the IC50 in [2] was determined as 37.7 nM; in experiment [3], 0.258 nM; in [4] it was 5.7 nM; in experiment [5], 1.5 nM.
As for `CC(C)[C@@H]1NC(=O)[C@H](Cc2cnc[nH]2)NC(=O)[C@@H]2CCCN2C(=O)[C@H](CC(N)=O)NC(=O)[C@H](CC(N)=O)NC(=O)[C@H](C(C)C)NC(=O)[C@H](CCCNC(=N)N)NC(=O)[C@H]2CSSC[C@H](NC(=O)[C@H](CCC(=O)O)NC(=O)[C@@H](N)CC(=O)O)C(=O)N[C@@H](CSSC[C@@H](C(=O)N[C@@H](CCCNC(=N)N)C(=O)N[C@@H](CCCNC(=N)N)C(=O)N[C@@H](CCCNC(=N)N)C(=O)O)NC1=O)C(=O)N[C@@H](CO)C(=O)N[C@@H](CC(N)=O)C(=O)N1CCC[C@H]1C(=O)N[C@@H](C)C(=O)N2`, the IC50 in experiment [1] came out at 2 nM; in experiment [3] it was 60 nM; in experiment [4] it was 6 nM.
Take `CC(C)C[C@@H]1NC(=O)[C@H](C(C)C)NC(=O)[C@H](C)NC(=O)[C@@H]2CSSC[C@H](NC(=O)CN)C(=O)N[C@@H](CSSC[C@H](C(=O)NCC(=O)O)NC(=O)[C@H](Cc3ccc(O)cc3)NC1=O)C(=O)N[C@@H](CO)C(=O)N[C@@H]([C@@H](C)O)C(=O)N1CC(O)C[C@H]1C(=O)N1CCC[C@H]1C(=O)N2` (stereo partly specified): the results for the IC50 in [6] and in experiment [7] were 12 nM and 1300 nM, respectively.
In the case of `C[C@@H]1NC(=O)[C@@H]2CSSC[C@H](NC(=O)CN)C(=O)N[C@@H](CSSC[C@@H](C(N)=O)NC(=O)[C@H](CCCNC(=N)N)NC(=O)[C@H](Cc3c[nH]c4ccccc34)NC1=O)C(=O)N[C@@H](CO)C(=O)N[C@@H](CC(=O)O)C(=O)N1CCC[C@H]1C(=O)N[C@@H](CCCNC(=N)N)C(=O)N2`, the IC50 in [8] was found to be 69 nM.
With `CC(C)[C@@H]1NC(=O)[C@H](Cc2cnc[nH]2)NC(=O)[C@@H]2CCCN2C(=O)[C@H](CC(N)=O)NC(=O)[C@H](CC(N)=O)NC(=O)[C@H](C(C)C)NC(=O)[C@H](CCCNC(=N)N)NC(=O)[C@@H]2CSSC[C@H](NC(=O)[C@H](CCC(=O)O)NC(=O)[C@@H](N)CC(=O)O)C(=O)N[C@@H](CSSC[C@@H](C(=O)N[C@@H](CCCNC(=N)N)C(=O)N[C@@H](CCCNC(=N)N)C(=O)N[C@@H](CCCNC(=N)N)C(=O)O)NC1=O)C(=O)N[C@@H](CO)C(=O)N[C@@H](CC(N)=O)C(=O)N1CCC[C@H]1C(=O)N[C@@H](C)C(=O)N2`, the results for the IC50 in experiment [9] and in experiment [10] were 5 nM and 3 nM, respectively.
Consider `CC[C@H](C)[C@@H]1NC(=O)[C@H](Cc2cnc[nH]2)NC(=O)[C@@H]2CCCN2C(=O)[C@H](CC(N)=O)NC(=O)[C@H](CC(N)=O)NC(=O)[C@H](C(C)C)NC(=O)[C@H](CC(N)=O)NC(=O)[C@@H]2CSSC[C@H](NC(=O)CN)C(=O)N[C@@H](CSSC[C@@H](C(=O)NCC(N)=O)NC1=O)C(=O)N[C@@H](CO)C(=O)N[C@@H](Cc1cnc[nH]1)C(=O)N1CCC[C@H]1C(=O)N[C@@H](C)C(=O)N2` (H-GCCSHPACNVNNPHICG-NH2; disulfide 2-8, 3-16), for which the IC50 in [1] came to 27 nM.
Turning to `CC(C)C[C@@H]1NC(=O)[C@H](C(C)C)NC(=O)[C@H](C)NC(=O)[C@@H]2CSSC[C@H](NC(=O)CN)C(=O)N[C@@H](CSSC[C@H](C(=O)NCC(=O)O)NC(=O)[C@H](Cc3ccc(O)cc3)NC1=O)C(=O)N[C@@H](CO)C(=O)N[C@@H](C)C(=O)N1CC(O)C[C@H]1C(=O)N1CCC[C@H]1C(=O)N2` (stereo partly specified), the IC50 came out at 1200 nM in experiment [11] and 58.1 nM in experiment [5].

For orientation: IC50 means the concentration needed to halve the response being measured.
